This note sets out measurements from paper PMC4727417, “Characterization of a novel 8R,11S-linoleate diol synthase from Penicillium chrysogenum by identification of its enzymatic products” (Journal of Lipid Research, 2016).

The target of series [1] is T1, 8R,11S-linoleate diol synthase (8R,11S-LDS; PC_1) (Penicillium rubens, UniProt B6HQI5).
T1 construct: gene Pc22g06980; full length, 1,074 residues, C-terminal His6 (pET-21a), E. coli ER2566, HisTrap purified; calculated 120,998 Da; N-terminal DOX domain 1-669, C-terminal P450 hydroperoxide isomerase domain 670-1074
Description: UV-visible spectroscopy, heme/protein absorption ratio (A410/A280). Format: binding. The note with it: heme occupancy of the purified enzyme.

Series [2] deals with T1, 8R,11S-linoleate diol synthase (8R,11S-LDS; PC_1). In words: O2 uptake, Clark-type oxygen monitor, Hanes-Woolf plot. The format is biochemical. To be noted: DOX activity (N-terminal dioxygenase domain of the whole enzyme); co-substrate O2; 50 mM EPPS pH 8.0, 25°C.
Series [3] has the same target. In words: HPLC of dihydroxy fatty acid product, Hanes-Woolf plot. To be noted: whole enzyme activity: overall conversion to dihydroxy fatty acid by sequential DOX and hydroperoxide isomerase domains; 25°C, 50 mM EPPS pH 8.0. Format: biochemical.
Substrate in series [4]: CCCCCC/C=C\CCCCCCCC(=O)O
In words: O2 uptake, Clark-type oxygen monitor, Hanes-Woolf plot. Format: biochemical, Penicillium rubens. The note with it: DOX activity (N-terminal dioxygenase domain of the whole enzyme), co-substrate O2, 50 mM EPPS pH 8.0, 25°C.

As to `C=CC1=C(C)C2=Cc3c(C=C)c(C)c4[n]3[Fe][n]3c(c(C)c(CCC(=O)O)c3=CC3=NC(=C4)C(C)=C3CCC(=O)O)=CC1=N2` [heme], the “UV-visible spectroscopy, heme/protein absorption ratio (A410/A280)” value in series [1] was “Heme occupancy of the wild-type and H999A, C1001S, and H999A-C1001S variant enzymes”.

For the molecule `CCCCC/C=C\C/C=C\CCCCCCCC(=O)O` [linoleic acid], the Km amounted to 18.9 ± 0.6 µM in series [2] and 86.1 ± 1.8 µM in series [3].

Consider `CCCCCCCC/C=C\CCCCCCCC(=O)O` [oleic acid], for which, in series [2], the Km came to 34.3 ± 1.2 µM.

As for `CC/C=C\C/C=C\C/C=C\CCCCCCCC(=O)O` [α-linolenic acid], the Michaelis constant (Km) in series [2] was determined as 69.9 ± 0.3 µM; in series [3], 138 ± 3.2 µM.

B1: 8R,11S-linoleate diol synthase (8R,11S-LDS; PC_1) (Penicillium rubens Wisconsin 54-1255) (protein)
chain: MAEKESNSSGKIAQLEQVVAAALRPLPTQTGDGSYVQEPTVTGLAKDLLNFDLKDAKTLADMAKTAVTGKAVNDRDYIMERVIQLASGLPSTSRNGKELTNTFLTQLWGDLEHPPISYLGRDAAYRKADGSGNNTFWPQIGAANTPYARSVRPKTMQPVALPEPEALFDSLLARKDFKEHPNKISSVLFHLASIIIHDLFQTDPRDQTKSLTSSYLDLSPLYGNNQKEQDTVRAFKDGKLKPDCFSTKRVLGFPPGVGVILIMFNRFHNSVVTQLAAINEGGRFTKPDESNAEAYATWDNDLFQTARLVTCGLYINIILKDYVRTILNVNRTDSLWSLDPRADIRDGLLGEAPAQATGNQVSAEFNLVYRWHSCVSSRDEKWSEDLYKEIFDGKDPKEISMQQFTGGLRQWESKLPADPQERPFAKLQRQADGKFDDNDLVKIFEESVEDPAGAFGALNVPDVFRGIEVLGIKQARSWNLATLNEFRQYFGLAAYQTFEEINPDPYVANQLKHFYDHPDLVELYPGLVVEETKQAMTPGSGLCTNFTTSRAILSDAVALVRGDRFYTVDFTPKHLTNWAFNEINNDVSVDGGQVFYKLILKAFPNHFRGDSVYAHFPLVVPDENKKILTSLGKVKTYSFDRPFYKAPPLFINSHSACTKILKDQEGFKVVWGEKIQFLMENSGRPYGRDFALSGDLPANAASRKMIGAALHRDKWESEVKAFYEDITLKLLERNSFKVAGVNQVDIVRDVAVLAQVNFCANVFSLSLKTESNPRGVFSEQELYQILAVIFASIFYDVDVSKSLQLCQTARNVAQQLGELTLANVELVAKTGFISNLVNRLHRHDILSEYGIHMIQRLLDSQLPVKDVVWSHILPTAGALVANQGQLFSQCIDYYLSEEAAEHLAEIQRLSREDTPEADELLVRYFMEGARLRCSVALPRFATKPTVVDDNGKRVTLKAGQEIICNLVVAGRDPVAFPDPDKVRLDRDMSLYTHFGFGPHECLGVKMCPLALSTMLKVLGRLDNVRRAPGPQGHLKRLDGLGGIAMYMDAEHSSFSPFPMTMKIQWDGDLPARRE
notes: full length, 1,074 residues, C-terminal His6 (pET-21a), E. coli ER2566, HisTrap purified; calculated 120,998 Da; N-terminal DOX domain 1-669, C-terminal P450 hydroperoxide isomerase domain 670-1074
For the molecule B1, in series [4], the Michaelis-Menten constant (Km) came to 20.0 ± 0.5 µM, the turnover number (kcat) amounted to 81.8 ± 3.77 s⁻¹ and the kcat/Km was found to be 4.32e+06 M⁻¹ s⁻¹.

What is called Km is the concentration of substrate that gives half-maximal velocity. As a reminder, the kcat is the number of substrate molecules converted per active site and unit of time at saturation. By kcat/Km is commonly meant the second-order rate constant that governs catalysis at low substrate concentration.
